Test results from patent publication US20090203707A1, “METHODS FOR TREATING PAIN” (priority 2008, published 2009).

Biological target: SCN9A (Nav1.7) Na+ channel, α- and β1 subunits, in HEK293 cells (Homo sapiens, UniProt Q15858)
Assay: Whole-cell patch clamp, Nav1.7 peak INa in HEK293 cells (Example 1)
Details: 0.1 Hz; for Mean amplitude of Nav1.7 peak INa, fraction of control: −100 mV to 0 mV, 50 msec; for p of logistic fit (Hill coefficient nH) for block of Nav1.7 peak INa / x0 of logistic fit (IC50) for block of Nav1.7 peak INa: holding −100 mV to 0 mV

Sequence of SCN9A (Nav1.7) Na+ channel, α- and β1 subunits, in HEK293 cells (Q15858 whole entry): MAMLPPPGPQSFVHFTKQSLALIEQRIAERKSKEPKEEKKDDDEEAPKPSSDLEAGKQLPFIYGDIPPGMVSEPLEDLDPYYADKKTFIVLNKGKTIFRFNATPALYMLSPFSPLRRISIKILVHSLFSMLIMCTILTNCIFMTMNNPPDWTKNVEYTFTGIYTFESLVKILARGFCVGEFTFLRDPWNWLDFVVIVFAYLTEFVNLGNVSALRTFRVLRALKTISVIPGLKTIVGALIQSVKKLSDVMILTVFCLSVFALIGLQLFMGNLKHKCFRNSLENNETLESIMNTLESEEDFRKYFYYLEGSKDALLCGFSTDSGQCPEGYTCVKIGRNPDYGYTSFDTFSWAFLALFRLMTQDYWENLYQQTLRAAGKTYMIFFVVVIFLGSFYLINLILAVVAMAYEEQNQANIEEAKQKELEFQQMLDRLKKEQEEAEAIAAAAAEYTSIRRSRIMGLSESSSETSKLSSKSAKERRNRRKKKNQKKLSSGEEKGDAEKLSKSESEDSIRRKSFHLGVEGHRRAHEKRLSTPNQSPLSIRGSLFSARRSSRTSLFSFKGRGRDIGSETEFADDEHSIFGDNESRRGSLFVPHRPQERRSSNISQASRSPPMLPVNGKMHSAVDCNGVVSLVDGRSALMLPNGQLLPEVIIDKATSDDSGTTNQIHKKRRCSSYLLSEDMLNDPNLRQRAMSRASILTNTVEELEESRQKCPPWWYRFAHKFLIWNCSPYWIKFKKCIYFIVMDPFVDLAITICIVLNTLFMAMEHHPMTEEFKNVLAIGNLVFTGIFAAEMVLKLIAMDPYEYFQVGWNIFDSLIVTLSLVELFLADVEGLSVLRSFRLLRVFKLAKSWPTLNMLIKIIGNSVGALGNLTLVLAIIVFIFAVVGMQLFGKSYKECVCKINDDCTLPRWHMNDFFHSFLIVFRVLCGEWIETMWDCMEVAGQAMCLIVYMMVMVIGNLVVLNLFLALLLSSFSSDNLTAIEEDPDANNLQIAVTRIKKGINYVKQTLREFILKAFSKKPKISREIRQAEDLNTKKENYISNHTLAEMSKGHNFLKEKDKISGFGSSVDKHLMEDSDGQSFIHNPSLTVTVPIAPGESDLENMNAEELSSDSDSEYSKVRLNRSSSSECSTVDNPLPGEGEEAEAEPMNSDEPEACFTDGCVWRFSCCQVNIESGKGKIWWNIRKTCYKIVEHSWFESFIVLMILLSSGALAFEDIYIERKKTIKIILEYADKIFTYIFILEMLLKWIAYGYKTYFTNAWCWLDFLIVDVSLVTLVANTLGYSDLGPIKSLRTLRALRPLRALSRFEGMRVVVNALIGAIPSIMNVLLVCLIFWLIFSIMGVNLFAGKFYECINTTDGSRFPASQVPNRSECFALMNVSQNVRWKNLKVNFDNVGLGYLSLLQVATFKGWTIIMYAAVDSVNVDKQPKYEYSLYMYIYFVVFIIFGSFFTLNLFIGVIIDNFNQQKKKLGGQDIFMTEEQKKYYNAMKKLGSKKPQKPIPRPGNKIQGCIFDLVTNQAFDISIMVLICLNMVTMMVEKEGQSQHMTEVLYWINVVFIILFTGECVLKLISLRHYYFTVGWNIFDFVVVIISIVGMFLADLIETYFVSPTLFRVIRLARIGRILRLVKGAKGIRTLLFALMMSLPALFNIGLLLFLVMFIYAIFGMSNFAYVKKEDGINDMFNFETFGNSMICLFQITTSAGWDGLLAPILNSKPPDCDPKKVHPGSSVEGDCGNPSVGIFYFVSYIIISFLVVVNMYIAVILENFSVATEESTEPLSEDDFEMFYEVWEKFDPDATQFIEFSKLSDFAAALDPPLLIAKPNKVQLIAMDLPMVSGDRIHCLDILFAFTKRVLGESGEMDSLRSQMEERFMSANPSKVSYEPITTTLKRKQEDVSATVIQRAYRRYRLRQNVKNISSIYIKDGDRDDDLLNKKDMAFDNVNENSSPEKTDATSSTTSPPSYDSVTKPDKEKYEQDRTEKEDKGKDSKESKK
Sequence of SCN9A (Nav1.7) Na+ channel, α- and β1 subunits, in HEK293 cells (Q07699 19-218 partner): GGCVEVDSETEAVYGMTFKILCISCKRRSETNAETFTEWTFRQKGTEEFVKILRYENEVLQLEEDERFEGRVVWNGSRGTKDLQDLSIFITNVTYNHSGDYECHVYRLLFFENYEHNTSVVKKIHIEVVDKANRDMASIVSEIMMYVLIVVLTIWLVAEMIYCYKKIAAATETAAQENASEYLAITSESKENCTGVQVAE

Structure (SMILES)	Mean amplitude of Nav1.7 peak INa, fraction of control (1 μM)	Mean amplitude of Nav1.7 peak INa, fraction of control (3 μM)	Mean amplitude of Nav1.7 peak INa, fraction of control (10 μM)	Mean amplitude of Nav1.7 peak INa, fraction of control (30 μM)	Mean amplitude of Nav1.7 peak INa, fraction of control (100 μM)	p of logistic fit (Hill coefficient nH) for block of Nav1.7 peak INa	x0 of logistic fit (IC50) for block of Nav1.7 peak INa
COc1ccccc1OC[C@H](O)CN1CCN(CC(=O)Nc2c(C)cccc2C)CC1 [R-Ranolazine, (R)-(+)-N-(2,6-dimethylphenyl)-4-[2-hydroxy-3-(2-methoxyphenoxy)-propyl]-1-piperazineacetamide]	0.9252	0.8286	0.6336	0.2387	0.07855	1.212	11.33 μM
COc1ccccc1OC[C@@H](O)CN1CCN(CC(=O)Nc2c(C)cccc2C)CC1 [S-Ranolazine, (S)-(−)-N-(2,6-dimethylphenyl)-4-[2-hydroxy-3-(2-methoxyphenoxy)-propyl]-1-piperazineacetamide]	0.8788	0.7285	0.5358	0.2883	0.06853	0.9409	9.433 μM
